Like-named read-outs stand apart in the source and are kept apart here.

For the test, the target named is mouse PKCα (Mus musculus, UniProt P20444). The experiment in a line: PKC binding assay.

One may read the Ki as the dissociation constant of the complex between target and ligand, obtained from inhibition or displacement. Consider `CC(C)[C@H]1C(=O)N[C@H](CO)Cc2ccc(O)cc2N1C` [compound 2, 9-Hydroxy-5-hydroxymethyl-2-isopropyl-1-methyl-(2S,5S)-1,4,5,6-tetrahydro-2H-benzo[e][1,4] diazocin-3-one], for which the Ki (read-out: Ki [nM] ± SEM) came out at 4840 ± 320 nM.

As to `C=CCCCCCOc1ccc2c(c1)N(C)[C@@H](C(C)C)C(=O)N[C@H](CO)C2` [compound 3, 9-Hept-6-enyloxy-5-hydroxymethyl-2-isopropyl-1-methyl-1,4,5,6-tetrahydro-2H-benzo[e][1,4] diazocin-3-one], affinity was put at a Ki of 5.4 ± 0.1 nM.

Turning to `CC(=O)SCCCOc1ccc2c(c1)N(C)[C@@H](C(C)C)C(=O)N[C@H](CO)C2` [compound 9, Thioacetic acid S-[3-(5-hydroxymethyl-2-isopropyl-1-methyl-3-oxo-1,2,3,4,5,6-hexahydro-benzo[e] [1,4]diazocin-9-yloxy)-propyl] ester], the affinity corresponds to a Ki of 21 ± 2.8 nM.

As to `CC(=O)SCCCCOc1ccc2c(c1)N(C)[C@@H](C(C)C)C(=O)N[C@H](CO)C2` [compound 10, Thioacetic acid S-[4-(5-hydroxymethyl-2-isopropyl-1-methyl-3-oxo-1,2,3,4,5,6-hexahydro-benzo [e][1,4]diazocin-9-yloxy)-butyl] ester], the Ki worked out at 15.8 ± 0.8 nM.

`CC(=O)SCCCCCOc1ccc2c(c1)N(C)[C@@H](C(C)C)C(=O)N[C@H](CO)C2` [compound 11, Thioacetic acid S-[5-(5-hydroxymethyl-2-isopropyl-1-methyl-3-oxo-1,2,3,4,5,6-hexahydro-benzo[e] [1,4]diazocin-9-yloxy)-pentyl] ester]: the Ki was determined as 6.6 ± 0.2 nM.

With `CC(=O)SCCCCCCCOc1ccc2c(c1)N(C)[C@@H](C(C)C)C(=O)N[C@H](CO)C2` [compound 13, Thioacetic acid S-[7-(5-hydroxymethyl-2-isopropyl-1-methyl-3-oxo-1,2,3,4,5,6-hexahydrobenzo[e] [1,4]diazocin-9-yloxy)-heptyl] ester], affinity was put at a Ki of 4.5 ± 0.4 nM.

With `CC(=O)SCCCCCCCCOc1ccc2c(c1)N(C)[C@@H](C(C)C)C(=O)N[C@H](CO)C2` [compound 14, Thioacetic acid S-[8-(5-hydroxymethyl-2-isopropyl-1-methyl-3-oxo-1,2,3,4,5,6-hexahydro-benzo[e] [1,4]diazocin-9-yloxy)-octyl] ester], the affinity, expressed as Ki, was 2.8 ± 0.5 nM.

The values above are taken from article PMC3057395 (ChemMedChem, 2009).
